Measured values taken from paper PMC12198282, “Application of a high-density microelectrode array assay using a 3D human iPSC-derived brain microphysiological system model for in vitro neurotoxicity screening of environmental compounds” (Archives of Toxicology, 2025).
Where two headings read alike, the source gives them in different places. Marks after values point to notes of the source that are not given here.

Legend:
[1] = system: 2D rat cortical cultures; conditions: cited from earlier work; on hitc CCTE Shafer MEA dev active electrodes number: key: 1 (active); 0 (inactive); on hitc CCTE Shafer MEA dev burst duration mean: key: 1 (active); 0 (inactive); on hitc CCTE Shafer MEA dev burst rate: key: 1 (active); 0 (inactive); on hitc CCTE Shafer MEA dev bursting electrodes number: key: 1 (active); 0 (inactive); on hitc CCTE Shafer MEA dev correlation coefficient mean: key: 1 (active); 0 (inactive); on hitc CCTE Shafer MEA dev firing rate mean: key: 1 (active); 0 (inactive); on hitc CCTE Shafer MEA dev inter network spike interval mean: key: 1 (active); 0 (inactive); on hitc CCTE Shafer MEA dev interburst interval mean: key: 1 (active); 0 (inactive); on hitc CCTE Shafer MEA dev mutual information norm: key: 1 (active); 0 (inactive); on hitc CCTE Shafer MEA dev network spike duration std: key: 1 (active); 0 (inactive); on hitc CCTE Shafer MEA dev network spike number: key: 1 (active); 0 (inactive); on hitc CCTE Shafer MEA dev network spike peak: key: 1 (active); 0 (inactive); on hitc CCTE Shafer MEA dev per burst interspike interval: key: 1 (active); 0 (inactive); on hitc CCTE Shafer MEA dev per burst spike percent: key: 1 (active); 0 (inactive); on hitc CCTE Shafer MEA dev per network spike spike number mean: key: 1 (active); 0 (inactive); on hitc CCTE Shafer MEA dev per network spike spike percent: key: 1 (active); 0 (inactive)
[2] = system: 2D rat cortical cultures; conditions: cytotoxicity LDH, cited from earlier work; for AC50: read-out: ac50 CCTE_Shafer_MEA_dev_LDH, rNFA mc5; for hitc CCTE_Shafer_MEA_dev_LDH: rNFA mc5 hit call; on hitc CCTE Shafer MEA dev active electrodes number: key: 1 (active); 0 (inactive); on hitc CCTE Shafer MEA dev burst duration mean: key: 1 (active); 0 (inactive); on hitc CCTE Shafer MEA dev burst rate: key: 1 (active); 0 (inactive); on hitc CCTE Shafer MEA dev bursting electrodes number: key: 1 (active); 0 (inactive); on hitc CCTE Shafer MEA dev correlation coefficient mean: key: 1 (active); 0 (inactive); on hitc CCTE Shafer MEA dev firing rate mean: key: 1 (active); 0 (inactive); on hitc CCTE Shafer MEA dev inter network spike interval mean: key: 1 (active); 0 (inactive); on hitc CCTE Shafer MEA dev interburst interval mean: key: 1 (active); 0 (inactive); on hitc CCTE Shafer MEA dev mutual information norm: key: 1 (active); 0 (inactive); on hitc CCTE Shafer MEA dev network spike duration std: key: 1 (active); 0 (inactive); on hitc CCTE Shafer MEA dev network spike number: key: 1 (active); 0 (inactive); on hitc CCTE Shafer MEA dev network spike peak: key: 1 (active); 0 (inactive); on hitc CCTE Shafer MEA dev per burst interspike interval: key: 1 (active); 0 (inactive); on hitc CCTE Shafer MEA dev per burst spike percent: key: 1 (active); 0 (inactive); on hitc CCTE Shafer MEA dev per network spike spike number mean: key: 1 (active); 0 (inactive); on hitc CCTE Shafer MEA dev per network spike spike percent: key: 1 (active); 0 (inactive)
[3] = system: BrainSpheres; test: Cytotoxicity evaluation, resazurin assay (BrainSphere.Cyto); format: cell-based, human; conditions: for AC50: read-out: ac50 BrainSphere.Cyto
Procedure: For the resazurin assay, BrainSpheres were cultured for 7 weeks in non-treated 6-well plates under gyratory shaking. Subsequently, the cells were exposed in the same manner as the HD-MEA plates. This assay was used to determine cell viability after exposure for 13 days to the different compounds. After exposure, resazurin diluted in PBS was added directly to the 6-well plates to a final concentration of 0.1 mg/ml. The plates were then put in an incubator for 3 h at 37 °C, 5% CO2. Then, 100 µl of the media was collected and transferred in a 96-well plate for fluorescence analysis, which was done at ex:530 nm/em:590 nm in a multi-well fluorometric reader CytoFluor series 4000 (PerSeptive Biosystems, Inc).
Ten metrics were measured to evaluate changes in neural activity in the BrainSphere MEA assay (Table 3). Considering the complexity of the data which includes seven recording days for each single ROI in a well, an area under the curve (AUC) metric was used to reduce activity across time as described in previous publications (Brown et al. [2016]; Frank et al. [2017b]; Shafer et al. [2019]). […] For concentration–response modeling, the mean AUC values across all the BrainSpheres per well (technical replicates) was computed for each endpoint, such that each concentration included biological replicates from at least three separate wells on three separate plates, representing each individual experiment. The mean AUC values were used for concentration–response modeling using the R package tcplfit2 (version 0.1.6) (Sheffield et al. [2022]). Data were normalized as a percent of vehicle control wells by plate using the equation: resp.pc=rval-bval/bval×100 where resp.pc is the percent of control value, rval is the response value, and bval is the baseline value (defined as the mean of the vehicle control and the lowest tested concentration). […] The activity cutoff was defined as 3 times the median absolute deviation (bmad) of baseline values. A curve was defined as ‘active’ if the continuous hit call was ≥ 0.9. See Supplemental Table 1 for the bmad, activity cutoff threshold, SD, and benchmark response for each endpoint in the BrainSphere MEA. Potency was defined as the concentration at 50% maximal activity (AC50 log10 µM).

[4] = system: 2D rat cortical cultures; conditions: cited from earlier work; for AC50: read-out: ac50 CCTE_Shafer_MEA_dev_AB, rNFA mc5; for AC50 / hitc CCTE_Shafer_MEA_dev_AB: cytotoxicity AlamarBlue; for hitc CCTE_Shafer_MEA_dev_AB: rNFA mc5 hit call; on hitc CCTE Shafer MEA dev active electrodes number: key: 1 (active); 0 (inactive); on hitc CCTE Shafer MEA dev burst duration mean: key: 1 (active); 0 (inactive); on hitc CCTE Shafer MEA dev burst rate: key: 1 (active); 0 (inactive); on hitc CCTE Shafer MEA dev bursting electrodes number: key: 1 (active); 0 (inactive); on hitc CCTE Shafer MEA dev correlation coefficient mean: key: 1 (active); 0 (inactive); on hitc CCTE Shafer MEA dev firing rate mean: key: 1 (active); 0 (inactive); on hitc CCTE Shafer MEA dev inter network spike interval mean: key: 1 (active); 0 (inactive); on hitc CCTE Shafer MEA dev interburst interval mean: key: 1 (active); 0 (inactive); on hitc CCTE Shafer MEA dev mutual information norm: key: 1 (active); 0 (inactive); on hitc CCTE Shafer MEA dev network spike duration std: key: 1 (active); 0 (inactive); on hitc CCTE Shafer MEA dev network spike number: key: 1 (active); 0 (inactive); on hitc CCTE Shafer MEA dev network spike peak: key: 1 (active); 0 (inactive); on hitc CCTE Shafer MEA dev per burst interspike interval: key: 1 (active); 0 (inactive); on hitc CCTE Shafer MEA dev per burst spike percent: key: 1 (active); 0 (inactive); on hitc CCTE Shafer MEA dev per network spike spike number mean: key: 1 (active); 0 (inactive); on hitc CCTE Shafer MEA dev per network spike spike percent: key: 1 (active); 0 (inactive)
[5] = rNFA mc5, aenm per_network_spike_spike_number_mean, read-out: ac50 CCTE_Shafer_MEA_dev_per_network_spike_spike_number_mean
[6] = rNFA mc5, aenm per_network_spike_spike_percent, read-out: ac50 CCTE_Shafer_MEA_dev_per_network_spike_spike_percent
[7] = rNFA mc5 hit call, aenm active_electrodes_number
[8] = rNFA mc5 hit call, aenm burst_duration_mean
[9] = rNFA mc5 hit call, aenm burst_rate
[10] = rNFA mc5 hit call, aenm bursting_electrodes_number
[11] = rNFA mc5 hit call, aenm correlation_coefficient_mean
[12] = rNFA mc5 hit call, aenm firing_rate_mean
[13] = rNFA mc5 hit call, aenm inter_network_spike_interval_mean
[14] = rNFA mc5 hit call, aenm interburst_interval_mean
[15] = rNFA mc5 hit call, aenm mutual_information_norm
[16] = rNFA mc5 hit call, aenm network_spike_duration_std
[17] = rNFA mc5 hit call, aenm network_spike_number
[18] = rNFA mc5 hit call, aenm network_spike_peak
[19] = rNFA mc5 hit call, aenm per_burst_interspike_interval
[20] = rNFA mc5 hit call, aenm per_burst_spike_percent
[21] = rNFA mc5 hit call, aenm per_network_spike_spike_number_mean
[22] = rNFA mc5 hit call, aenm per_network_spike_spike_percent
[23] = rNFA mc5 hit call, aenm spike_duration_mean
[24] = ref Brown et al. [2016], Carstens et al. [2022], Frank et al. [2017b], Shafer et al. [2019], ToxCast invitrodb (v4.2)

CN(C)C(=O)C(CCN1CCC(O)(c2ccc(Cl)cc2)CC1)(c1ccccc1)c1ccccc1 [Loperamide]
Bioactivity in the rNFA (in words) [1]: alter multiple parameters of network formation | hitc CCTE_Shafer_MEA_dev_active_electrodes_number [1]: 1 | hitc CCTE_Shafer_MEA_dev_burst_duration_mean [1]: 1 | hitc CCTE_Shafer_MEA_dev_burst_rate [1]: 1 | hitc CCTE_Shafer_MEA_dev_bursting_electrodes_number [1]: 1 | hitc CCTE_Shafer_MEA_dev_correlation_coefficient_mean [1]: 1 | hitc CCTE_Shafer_MEA_dev_firing_rate_mean [1]: 1 | hitc CCTE_Shafer_MEA_dev_inter_network_spike_interval_mean [1]: 0 | hitc CCTE_Shafer_MEA_dev_interburst_interval_mean [1]: 1 | hitc CCTE_Shafer_MEA_dev_mutual_information_norm [1]: 1 | hitc CCTE_Shafer_MEA_dev_network_spike_duration_std [1]: 1 | hitc CCTE_Shafer_MEA_dev_network_spike_number [1]: 1 | hitc CCTE_Shafer_MEA_dev_network_spike_peak [1]: 1 | hitc CCTE_Shafer_MEA_dev_per_burst_interspike_interval [1]: 1 | hitc CCTE_Shafer_MEA_dev_per_burst_spike_percent [1]: 1 | hitc CCTE_Shafer_MEA_dev_per_network_spike_spike_number_mean [1]: 1 | hitc CCTE_Shafer_MEA_dev_per_network_spike_spike_percent [1]: 1 | hitc CCTE_Shafer_MEA_dev_spike_duration_mean [1]: 1 | AC50 ([1]; read-out: ac50 CCTE_Shafer_MEA_dev_active_electrodes_number): 196 nM | AC50 ([1]; read-out: ac50 CCTE_Shafer_MEA_dev_burst_duration_mean): 33 nM | AC50 ([1]; read-out: ac50 CCTE_Shafer_MEA_dev_burst_rate): 42 nM | AC50 ([1]; read-out: ac50 CCTE_Shafer_MEA_dev_bursting_electrodes_number): 117 nM | AC50 ([1]; read-out: ac50 CCTE_Shafer_MEA_dev_correlation_coefficient_mean): 766 nM | AC50 ([1]; read-out: ac50 CCTE_Shafer_MEA_dev_firing_rate_mean): 63 nM | AC50 ([1]; read-out: ac50 CCTE_Shafer_MEA_dev_interburst_interval_mean): 249 nM | AC50 ([1]; read-out: ac50 CCTE_Shafer_MEA_dev_mutual_information_norm): 112 nM | AC50 ([1]; read-out: ac50 CCTE_Shafer_MEA_dev_network_spike_duration_std): 262 nM | AC50 ([1]; read-out: ac50 CCTE_Shafer_MEA_dev_network_spike_number): 33 nM | AC50 ([1]; read-out: ac50 CCTE_Shafer_MEA_dev_network_spike_peak): 1810 nM | AC50 ([1]; read-out: ac50 CCTE_Shafer_MEA_dev_per_burst_interspike_interval): 67 nM | AC50 ([1]; read-out: ac50 CCTE_Shafer_MEA_dev_per_burst_spike_percent): 244 nM | AC50 ([1]; read-out: ac50 CCTE_Shafer_MEA_dev_per_network_spike_spike_number_mean): 766 nM | AC50 ([1]; read-out: ac50 CCTE_Shafer_MEA_dev_per_network_spike_spike_percent): 2300 nM | AC50 ([1]; read-out: ac50 CCTE_Shafer_MEA_dev_spike_duration_mean): 511 nM | AC50 [2]: 2940 nM | Cytotoxicity / cell viability in the BrainSphere resazurin assay (in words) [3]: positive hit call for cytotoxicity | AC50 ([3]; Homo sapiens, 312 h): 18000 nM | ACC BrainSphere.Cyto ([3]; human): 8.7 µM | BMD BrainSphere.Cyto ([3]; human): 8.4 µM | Cytotoxicity / cell viability in the BrainSphere resazurin assay (in words) ([3]; human): appeared to demonstrate cytotoxic effects at 30 and 90 µM | Cytotoxicity hit ([3]; human): 1* | hitc BrainSphere.Cyto ([3]; human): 1 | AC50 [3]: 18100 nM | AC50 [4]: 5020 nM

[CH3][Hg][Cl] [Methylmercury]
AC50 ([1]; rNFA mc5, aenm active_electrodes_number, read-out: ac50 CCTE_Shafer_MEA_dev_active_electrodes_number): 360 nM | AC50 ([1]; rNFA mc5, aenm burst_duration_mean, read-out: ac50 CCTE_Shafer_MEA_dev_burst_duration_mean): 260 nM | AC50 ([1]; rNFA mc5, aenm burst_rate, read-out: ac50 CCTE_Shafer_MEA_dev_burst_rate): 207 nM | AC50 ([1]; rNFA mc5, aenm bursting_electrodes_number, read-out: ac50 CCTE_Shafer_MEA_dev_bursting_electrodes_number): 370 nM | AC50 ([1]; rNFA mc5, aenm correlation_coefficient_mean, read-out: ac50 CCTE_Shafer_MEA_dev_correlation_coefficient_mean): 306 nM | AC50 ([1]; rNFA mc5, aenm firing_rate_mean, read-out: ac50 CCTE_Shafer_MEA_dev_firing_rate_mean): 177 nM | AC50 ([1]; rNFA mc5, aenm inter_network_spike_interval_mean, read-out: ac50 CCTE_Shafer_MEA_dev_inter_network_spike_interval_mean): 6 nM | AC50 ([1]; rNFA mc5, aenm interburst_interval_mean, read-out: ac50 CCTE_Shafer_MEA_dev_interburst_interval_mean): 340 nM | AC50 ([1]; rNFA mc5, aenm mutual_information_norm, read-out: ac50 CCTE_Shafer_MEA_dev_mutual_information_norm): 134 nM | AC50 ([1]; rNFA mc5, aenm network_spike_duration_std, read-out: ac50 CCTE_Shafer_MEA_dev_network_spike_duration_std): 164 nM | AC50 ([1]; rNFA mc5, aenm network_spike_number, read-out: ac50 CCTE_Shafer_MEA_dev_network_spike_number): 87 nM | AC50 ([1]; rNFA mc5, aenm network_spike_peak, read-out: ac50 CCTE_Shafer_MEA_dev_network_spike_peak): 356 nM | AC50 ([1]; rNFA mc5, aenm per_burst_interspike_interval, read-out: ac50 CCTE_Shafer_MEA_dev_per_burst_interspike_interval): 322 nM | AC50 ([1]; rNFA mc5, aenm per_burst_spike_percent, read-out: ac50 CCTE_Shafer_MEA_dev_per_burst_spike_percent): 306 nM | AC50 [1, 5]: 536 nM | AC50 [1, 6]: 309 nM | AC50 ([1]; rNFA mc5, aenm spike_duration_mean, read-out: ac50 CCTE_Shafer_MEA_dev_spike_duration_mean): 275 nM | hitc CCTE_Shafer_MEA_dev_active_electrodes_number [1, 7]: 1 | hitc CCTE_Shafer_MEA_dev_burst_duration_mean [1, 8]: 1 | hitc CCTE_Shafer_MEA_dev_burst_rate [1, 9]: 1 | hitc CCTE_Shafer_MEA_dev_bursting_electrodes_number [1, 10]: 1 | hitc CCTE_Shafer_MEA_dev_correlation_coefficient_mean [1, 11]: 1 | hitc CCTE_Shafer_MEA_dev_firing_rate_mean [1, 12]: 1 | hitc CCTE_Shafer_MEA_dev_inter_network_spike_interval_mean [1, 13]: 1 | hitc CCTE_Shafer_MEA_dev_interburst_interval_mean [1, 14]: 1 | hitc CCTE_Shafer_MEA_dev_mutual_information_norm [1, 15]: 1 | hitc CCTE_Shafer_MEA_dev_network_spike_duration_std [1, 16]: 1 | hitc CCTE_Shafer_MEA_dev_network_spike_number [1, 17]: 1 | hitc CCTE_Shafer_MEA_dev_network_spike_peak [1, 18]: 1 | hitc CCTE_Shafer_MEA_dev_per_burst_interspike_interval [1, 19]: 1 | hitc CCTE_Shafer_MEA_dev_per_burst_spike_percent [1, 20]: 1 | hitc CCTE_Shafer_MEA_dev_per_network_spike_spike_number_mean [1, 21]: 1 | hitc CCTE_Shafer_MEA_dev_per_network_spike_spike_percent [1, 22]: 1 | hitc CCTE_Shafer_MEA_dev_spike_duration_mean [1, 23]: 1 | hitc CCTE_Shafer_MEA_dev_LDH [2]: 1 | AC50 [2]: 182 nM | Cytotoxicity / cell viability in the BrainSphere resazurin assay (in words) ([3]; day 13 of exposure): magnitude of the response was not sufficient to indicate a positive response | Cytotoxicity hit ([3]; resazurin, after 13 days of exposure): 0 | hitc BrainSphere.Cyto ([3]; resazurin, day 13, tcplfit2): 0 | AC50 ([3]; resazurin, day 13, Supplement 3 prints it also for curves with hit call 0): 190 nM | BMD BrainSphere.Cyto ([3]; tcplfit2 BMD at benchmark response (1.349*SD of baseline controls)): 0.15 µM | ACC BrainSphere.Cyto ([3]; tcplfit2 output ACC, activity cutoff in Supplemental Table 1): 0.18 µM | Top BrainSphere.Cyto ([3]; top of winning model, response normalized as percent of vehicle control, negative = decrease): −10 | hitc CCTE_Shafer_MEA_dev_AB [4]: 1 | AC50 [4]: 283 nM | Cytotoxicity in the resazurin assay of the rNFA (in words) [4, 24]: demonstrating cytotoxicity in the rNFA

CCCC(CCC)C(=O)O [Sodium valproate]
Number of active endpoints in the rNFA ([1]; of 17 MEA endpoints, ref Brown et al. [2016], Carstens et al. [2022], Frank et al. [2017b], Shafer et al. [2019], ToxCast invitrodb (v4.2)): two | AC50 [1, 5]: 576000 nM | AC50 [1, 6]: 488000 nM | hitc CCTE_Shafer_MEA_dev_active_electrodes_number [1, 7]: 0 | hitc CCTE_Shafer_MEA_dev_burst_duration_mean [1, 8]: 0 | hitc CCTE_Shafer_MEA_dev_burst_rate [1, 9]: 0 | hitc CCTE_Shafer_MEA_dev_bursting_electrodes_number [1, 10]: 0 | hitc CCTE_Shafer_MEA_dev_correlation_coefficient_mean [1, 11]: 0 | hitc CCTE_Shafer_MEA_dev_firing_rate_mean [1, 12]: 0 | hitc CCTE_Shafer_MEA_dev_inter_network_spike_interval_mean [1, 13]: 0 | hitc CCTE_Shafer_MEA_dev_interburst_interval_mean [1, 14]: 0 | hitc CCTE_Shafer_MEA_dev_mutual_information_norm [1, 15]: 0 | hitc CCTE_Shafer_MEA_dev_network_spike_duration_std [1, 16]: 0 | hitc CCTE_Shafer_MEA_dev_network_spike_number [1, 17]: 0 | hitc CCTE_Shafer_MEA_dev_network_spike_peak [1, 18]: 0 | hitc CCTE_Shafer_MEA_dev_per_burst_interspike_interval [1, 19]: 0 | hitc CCTE_Shafer_MEA_dev_per_burst_spike_percent [1, 20]: 0 | hitc CCTE_Shafer_MEA_dev_per_network_spike_spike_number_mean [1, 21]: 1 | hitc CCTE_Shafer_MEA_dev_per_network_spike_spike_percent [1, 22]: 1 | hitc CCTE_Shafer_MEA_dev_spike_duration_mean [1, 23]: 0 | Concentrations at which active in the rNFA [1, 24]: exceeding 450 µM | hitc CCTE_Shafer_MEA_dev_LDH [2]: 0 | AC50 ([3]; Homo sapiens, 312 h, resazurin, day 13, Supplement 3 prints it also for curves with hit call 0): 45000 nM | BMD BrainSphere.Cyto ([3]; human): 117 µM | Cytotoxicity hit ([3]; human): 0 | hitc BrainSphere.Cyto ([3]; human): 0 | hitc CCTE_Shafer_MEA_dev_AB [4]: 0
